From the NIST ThermoML archive (doi:10.1016/j.jct.2010.11.007)

Assay: refractive index (Na D-line) (dimensionless); xn = mol fraction of the nth substance listed
Conditions: 101 kPa, Liquid, Standard Abbe refractometry

C=CC(C)(O)CCC=C(C)C (stereo not drawn) [3,7-dimethyl-1,6-octadien-3-ol] + CCCO
refractive index
Conditions	283.15 K	298.15 K	313.15 K	328.15 K
x1 = 0.0533	1.39881	1.39255	1.38616	1.3796
x1 = 0.1051	1.40707	1.40075	1.39427	1.38756
x1 = 0.2014	1.41983	1.41337	1.40675	1.39986
x1 = 0.3032	1.43049	–	–	–
x1 = 0.3049	–	1.42409	1.41728	1.41023
x1 = 0.3869	1.43761	1.43088	1.42395	1.41687
x1 = 0.4929	–	–	–	1.42395
x1 = 0.4951	1.44504	1.4382	1.43113	–
x1 = 0.5917	1.45054	1.44367	1.43657	1.42935
x1 = 0.6895	1.45535	1.4484	1.44114	1.4339
x1 = 0.767	–	–	–	1.4371
x1 = 0.7765	1.45896	1.45193	1.44473	–
x1 = 0.8735	1.46254	1.45549	1.44824	1.44085
x1 = 0.9296	1.46441	1.4573	1.44997	1.44249
x1 = 1	1.4666	1.45946	1.45215	1.44473
